Test results taken from patent US9493485B2, “Spirocyclic dihydro-thiazine and dihydro-oxazine BACE inhibitors, and compositions and uses thereof” (Imago Pharmaceuticals, Inc., priority 2012, dated 2016).
pIC50: −log10 of the molar value. Where two headings read alike, the source gives them in different places.

Key:
Cathepsin D = Cathepsin D (Homo sapiens (Human), UniProt P07339); experiment: Cathepsin D FP assay; format: biochemical; details: pH 4.5, read-out: CatD FP IC50
Description: (§1) BACE1 activity can be assessed in an AlphaScreen® assay. Compounds to be assessed (e.g. compounds as described in the above examples) are serially diluted 1:4 in DMSO, then plated by diluting 10 μL of compound with 40 μl of assay buffer (1×PBS, 0.01% Tween-20, pH 7.0, 0.05% BSA). The diluted compound is transferred (4 μL per well) to a 386 well assay plate and 4 μL of BACE1 enzyme ([…]) is added and incubated for 15 minutes. This assay uses a probe that is a BACE1 binding sight ligand linked to biotin, which can be displaced by test compound dependent on compound binding affinity. This of biotinylated probe (4 μL) is added and incubated for 1 hour, followed with 4 μL of donor and acceptor bead mixture and incubated for 2 hours. The fluorescent signal is read on a plate reader and the value as a function of compound concentration is used to determine the IC50. Compounds are also assessed for BACE1 and Cathepsin D activity using an FP Assay. Compounds to be assessed (e.g. compounds as described in the above examples) are serially diluted 1:3 with DMSO and each concentration point is transferred to a 96 well plate, 6 μL per well, followed by addition of 194 μL of assay buffer (100 mM sodium acetate, pH 4.5 with 0.001% Tween-20). A 10 μL compound sample from this plate is transferred to a well of a 384 well plate and combined with 10 μL per well of BACE1 enzyme (0.3 nM in assay buffer) or Cathepsin D enzyme (1.8 nM in assay buffer) and the plate is incubated at room temperature for 30 minutes.

[1] = test system: BACE1 inhibition in HEKp293 cells transfected with APP751 gene (SWE293); experiment: SWE293 cellular assay: reduction of Aβ peptide production, ELISA; format: cell-based; details: Homo sapiens, read-out: SWE293 ED50
Description: BACE1 inhibition is also assessed in a cellular assay. HEKp293 cells transfected with APP751 gene (SWE293, American Type Culture Collection CRL-1563) are used to assess compounds for reduction in levels of Aβ peptide production. SWE293 cell medium is DMEM supplemented with 10% fetal bovine serum and 2 mM L-glutamine, 1.0 mM sodium pyruvate, 25 mM Hepes Buffer, 0.4 mg/mL geneticin (G418, Gibco BRL 860-181IIJ). Cells are maintained diluting 1:10 for 4 days in T-150 flask and 35 mL of cell media. For plating, cells are rinsed with 5 mL of 1×PBS, trypsinized with 4 mL of 0.05% Tripsin for 1 minute, and 12 mL of cell media is added. These are centrifuged at 1000 rpm for 4 minutes and the media aspirated, then 8 mL of media per flask is added. Based on cell count, appropriate amounts of cell and cell media are combined, and 180 μl per well are plated (96 well) and the plates are incubated overnight at 37° C., 5% CO2. Compounds to be tested are serially diluted 1:3 in DMSO and twice in media (without G418) in V-bottom plates and incubated at room temperature. Plated cells are washed with media, 3×50 μL per well and 17 μL per well of appropriate dilution of compound is added. Plates are incubated for 2 hours, and the wash steps, compound addition and incubation are repeated. Sample is transferred to capture plate (prepared with 266 antibody, see e.g. Johnson-Wood et al., PNAS February 1997, 94: 1550-1555), along with a standard curve of Aβ-40. ELISA assay is used to assess Aβ levels, washing with TBS, 0.05% Tween20 pH 7.5, then adding 1.3 mg/mL 3D6 antibody 1:900 in specimen diluents with thimericol is added (100 μl per well) and incubated for 1 hour. Wash step is repeated and Streptavidin-AP diluted 1:1000 in specimen diluents with thimerisol is added (100 μL per well) and incubated for 1 hour. Wash step is repeated and fluorescent substrate is added, 100 μL per well and incubated for 10 minutes followed by reading the fluorescent signal on a plate reader.

BACE1 [2] = molecular target: T1, BACE1 (Homo sapiens (Human), UniProt P56817); experiment: BACE1 FP assay; format: biochemical; details: pH 4.5
Description: as §1

BACE1 [3] = molecular target: T1, BACE1; experiment: BACE1 AlphaScreen assay (displacement of biotinylated BACE1 binding site probe); details: read-out: BACE1 AS IC50
Description: as §1

[4] = dose at which Aβ level is reduced by 50%, HEKp293 SWE293 cells

Chain of Cathepsin D (P07339 65-412, species assumed): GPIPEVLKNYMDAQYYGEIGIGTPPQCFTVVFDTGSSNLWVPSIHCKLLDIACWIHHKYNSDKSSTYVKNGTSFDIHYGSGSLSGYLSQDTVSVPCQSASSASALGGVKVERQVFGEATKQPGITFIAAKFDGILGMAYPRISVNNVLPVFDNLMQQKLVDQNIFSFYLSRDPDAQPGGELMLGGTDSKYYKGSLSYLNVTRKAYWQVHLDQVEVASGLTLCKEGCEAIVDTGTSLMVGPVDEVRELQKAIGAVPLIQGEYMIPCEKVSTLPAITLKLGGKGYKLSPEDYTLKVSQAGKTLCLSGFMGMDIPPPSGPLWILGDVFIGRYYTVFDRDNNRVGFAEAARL
T1 sequence (P56817 46-501): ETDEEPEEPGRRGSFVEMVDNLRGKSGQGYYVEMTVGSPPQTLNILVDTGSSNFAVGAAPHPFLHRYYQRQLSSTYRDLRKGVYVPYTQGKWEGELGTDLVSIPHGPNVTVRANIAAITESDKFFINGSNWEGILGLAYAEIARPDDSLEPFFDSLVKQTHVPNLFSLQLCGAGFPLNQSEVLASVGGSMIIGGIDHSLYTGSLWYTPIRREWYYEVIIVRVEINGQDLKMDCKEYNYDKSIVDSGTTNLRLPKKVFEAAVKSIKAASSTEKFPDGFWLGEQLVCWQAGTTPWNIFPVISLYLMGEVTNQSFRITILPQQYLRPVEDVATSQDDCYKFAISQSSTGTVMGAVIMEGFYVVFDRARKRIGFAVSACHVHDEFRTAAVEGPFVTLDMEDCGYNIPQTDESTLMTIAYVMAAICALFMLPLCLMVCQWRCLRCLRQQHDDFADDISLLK

Row | SMILES | pIC50 (Cathepsin D) | pIC50 [1, 4] | pIC50 (BACE1 [2]) | pIC50 (BACE1 [3]) | pIC50 [1]
1 | CC1(c2cc(NC(=O)c3ccc(F)cn3)ccc2F)CC2(CCC2)OC(N)=N1 (centres unmarked) [Compound 9-125, N-(3-(6-amino-8-methyl-5-oxa-7-azaspiro[3.5]non-6-en-8-yl)-4-fluorophenyl)-5-fluoropicolinamide] | < 4.52 | 7.17 | 6.44 | 7.54 | 
2 | CC1(c2cc(NC(=O)c3ccc(F)cn3)ccc2F)CC2(CCOCC2)SC(N)=N1 (centres unmarked) [Compound 9-147, N-(3-(2-amino-4-methyl-9-oxa-1-thia-3-azaspiro[5.5]undec-2-en-4-yl)-4-fluorophenyl)-5-fluoropicolinamide] | 4.81 | > 8.40 | 7.54 | 8.10 | 
3 | CC1(c2cc(NC(=O)c3ccc(C#N)cn3)ccc2F)N=C(N)OC2(CCC2)C1(F)F (centres unmarked) [Compound 9-161, N-(3-(6-amino-9,9-difluoro-8-methyl-5-oxa-7-azaspiro[3.5]non-6-en-8-yl)-4-fluorophenyl)-5-cyanopicolinamide] | < 4.52 | 7.42 | 7.18 | 7.87 | 
4 | C[C@@]1(c2cc(NC(=O)c3ccc(Cl)cc3)ccc2F)CC2(CCC2)OC(N)=N1 [Compound 9-141, (S)—N-(3-(6-amino-8-methyl-5-oxa-7-azaspiro[3.5]non-6-en-8-yl)-4-fluorophenyl)-4-chlorobenzamide] | < 4.52 |  | 6.08 | 7.76 | 6.96
5 | C[C@@]1(c2cc(NC(=O)c3ccc(Cl)cn3)ccc2F)CC2(CCC(F)(F)CC2)OC(N)=N1 [Compound 9-124, (S)—N-(3-(2-amino-9,9-difluoro-4-methyl-1-oxa-3-azaspiro[5.5]undec-2-en-4-yl)-4-fluorophenyl)-5-chloropicolinamide] | < 4.52 | 7.96 | 7.22 | 8.35 | 
6 | C[C@]1(c2cc(NC(=O)c3ccc(C#N)cn3)ccc2F)N=C(N)OC2(CCC2)C1(F)F [Compound 9-162, (R)—N-(3-(6-amino-9,9-difluoro-8-methyl-5-oxa-7-azaspiro[3.5]non-6-en-8-yl)-4-fluorophenyl)-5-cyanopicolinamide] | < 4.52 | 7.41 | 7.40 | 7.82 | 
7 | C[C@@]1(c2cc(NC(=O)c3ccc(Cl)cn3)ccc2F)CC2(CCC2)OC(N)=N1 [Compound 9-129, (S)—N-(3-(6-amino-8-methyl-5-oxa-7-azaspiro[3.5]non-6-en-8-yl)-4-fluorophenyl)-5-chloropicolinamide] | < 4.52 | 7.43 | 6.97 | 8.08 | 
8 | C[C@@]1(c2cc(NC(=O)c3ccc(F)cn3)ccc2F)CC2(CCOCC2)SC(N)=N1 [Compound 9-148, (S)—N-(3-(2-amino-4-methyl-9-oxa-1-thia-3-azaspiro[5.5]undec-2-en-4-yl)-4-fluorophenyl)-5-fluoropicolinamide] | < 4.52 | 8.85 | 7.54 | 8.17 | 
9 | CCCn1cc(-c2ccc(F)c(C3(C)CC4(CCOCC4)OC(N)=N3)c2)cn1 (centres unmarked) [Compound 8-107, 4-(2-fluoro-5-(1-propyl-1H-pyrazol-4-yl)phenyl)-4-methyl-1,9-dioxa-3-azaspiro[5.5]undec-2-en-2-amine] | 4.68 | 5.76 | 4.47 | 5.78 | 
10 | CC#Cc1cncc(-c2csc(C3(C)N=C(N)OC4(CCOCC4)C3(F)F)c2)c1 (centres unmarked) [Compound 8-114, 5,5-difluoro-4-methyl-4-(4-(5-(prop-1-ynyl)pyridin-3-yl)thiophen-2-yl)-1,9-dioxa-3-azaspiro[5.5]undec-2-en-2-amine] | 5.26 | 5.67 | 6.20 | 6.66 | 
11 | C[C@@]1(c2cc(NC(=O)c3ccc(F)cn3)ccc2F)CC2(COC2)SC(N)=N1 [Compound 9-146, (S)—N-(3-(6-amino-8-methyl-2-oxa-5-thia-7-azaspiro[3.5]non-6-en-8-yl)-4-fluorophenyl)-5-fluoropicolinamide] | < 4.52 | 7.66 | 6.92 | 8.01 | 
12 | CC1(c2cc(NC(=O)c3ccc(Cl)cn3)ccc2F)CC2(CCOCC2)SC(N)=N1 (centres unmarked) [Compound 9-150, N-(3-(2-amino-4-methyl-9-oxa-1-thia-3-azaspiro[5.5]undec-2-en-4-yl)-4-fluorophenyl)-5-chloropicolinamide] | 4.97 | > 8.40 | 8.40 | 8.05 | 
13 | C[C@]1(c2cc(NC(=O)c3ccc(F)cn3)ccc2F)CC2(CCC2)OC(N)=N1 [Compound 9-127, (R)—N-(3-(6-amino-8-methyl-5-oxa-7-azaspiro[3.5]non-6-en-8-yl)-4-fluorophenyl)-5-fluoropicolinamide] | < 4.52 | < 5.00 | 5.13 | 5.88 | 
14 | CC1(c2cc(-c3cncnc3)ccc2F)CC2(CCOCC2)OC(N)=N1 (centres unmarked) [Compound 8-106, 4-(2-fluoro-5-(pyrimidin-5-yl)phenyl)-4-methyl-1,9-dioxa-3-azaspiro[5.5]undec-2-en-2-amine] | < 4.52 | 6.17 | 4.90 | 6.24 | 
15 | CC#Cc1cncc(-c2csc([C@]3(C)CC4(CCOCC4)OC(N)=N3)c2)c1 [Compound 8-104, (S)-4-methyl-4-(4-(5-(prop-1-ynyl)pyridin-3-yl)thiophen-2-yl)-1,9-dioxa-3-azaspiro[5.5]undec-2-en-2-amine] | 4.83 |  | 6.39 | 7.80 | 6.80
16 | CC#Cc1cncc(-c2csc(C3(C)CC4(CCOCC4)SC(N)=N3)c2)c1 (centres unmarked) [Compound 8-113, 4-methyl-4-(4-(5-(prop-1-ynyl)pyridin-3-yl)thiophen-2-yl)-9-oxa-1-thia-3-azaspiro[5.5]undec-2-en-2-amine] | 5.73 | 6.74 | 6.80 | > 8.15 | 
17 | Cc1nc(C(=O)Nc2ccc(F)c(C3(C)N=C(N)OC4(CCC4)C3(F)F)c2)co1 (centres unmarked) [Compound 9-165, N-(3-(6-amino-9,9-difluoro-8-methyl-5-oxa-7-azaspiro[3.5]non-6-en-8-yl)-4-fluorophenyl)-2-methyloxazole-4-carboxamide] | < 4.52 | 6.75 | 6.30 | 7.47 | 
18 | C[C@@]1(c2cc(NC(=O)c3ncc(Cl)cc3F)ccc2F)CC2(CCC2)OC(N)=N1 [Compound 9-131, (S)—N-(3-(6-amino-8-methyl-5-oxa-7-azaspiro[3.5]non-6-en-8-yl)-4-fluorophenyl)-5-chloro-3-fluoropicolinamide] | < 4.52 | 7.34 | 7.06 | 8.24 | 
19 | CC#Cc1cncc(-c2ccc(F)c([C@]3(C)CC4(CCC4)OC(N)=N3)c2)c1 [Compound 8-111, (S)-8-(2-fluoro-5-(5-(prop-1-ynyl)pyridin-3-yl)phenyl)-8-methyl-5-oxa-7-azaspiro[3.5]non-6-en-6-amine] | 5.29 | 6.41 | 5.45 | 7.06 | 
20 | COc1cnc(C(=O)Nc2ccc(F)c([C@]3(C)CC4(CCC4)OC(N)=N3)c2)cn1 [Compound 9-135, (S)—N-(3-(6-amino-8-methyl-5-oxa-7-azaspiro[3.5]non-6-en-8-yl)-4-fluorophenyl)-5-methoxypyrazine-2-carboxamide] | < 4.52 | 7.57 | 6.55 | 7.98 | 
